The text below walks through data of ChEMBL document CHEMBL3507680, “University of Dundee, Gates Library screen for HepG2 cell viability”.

The nature of this data set: Human HepG2 cell viability assay in 384 well format. In kind it is toxicity, cell-based. More on the design: dose 125 nL, time 70.5 hour; cytotoxicity at 70.5 h: concentration not given beside the values. The note with it: HepG2 cells, read-out: Inhibition.
Regarding `OC(COCc1ccco1)CN1CCc2c(ncn2C2CC2)C1` (centres undefined), the cytotoxicity at 70.5 h is 1.85%. Then `Cc1n[nH]c(C)c1CCNC(=O)C1CCCN(CC(N)=O)C1` (centres undefined), with -1.91%; and `C1CCC(c2nc3c(c(N4CC(N5CCOCC5)C4)n2)CCNCC3)C1`, with -8.17%; and `CC(C)NC(=O)NC(C)c1ccc(-c2ccncc2)cc1` (centres undefined), with -7.15%. Then `O=C(NCCc1cccs1)[C@H]1CO[C@H]2CCN(C3CCC3)C[C@H]2C1`, with -0.468%. As to `CC(CN1CCCC1=O)NC(=O)c1cc(-c2cccc(Cl)c2)no1` (centres undefined), the cytotoxicity at 70.5 h was -18.5%. For `CCc1nc2c(N3CCCC(c4nccn4CCOC)C3)ncnc2o1` (centres undefined), the cytotoxicity at 70.5 h turned out to be 26.1%. Then `CS(=O)(=O)N1CCc2[nH]cnc2C12CCN(C(=O)c1ccc[nH]1)CC2`, with -3.3%; and `Cc1noc(C)c1CC(=O)N1CCCN(Cc2cscn2)CC1`, with -2.59%. On to `O=C(c1c(O)cnc2ccccc12)N1CCCSCC1`, for which the cytotoxicity at 70.5 h is -1.19%. To `Cn1cc(C(=O)N[C@@H]2CN(CC3CCOCC3)[C@@H]3CCCO[C@@H]32)cn1` belongs -7.22%. To `OCc1ccncc1NCc1cnc(-c2ccccn2)s1` belongs 0.118%; to `CC(C)(N)C(=O)N1CCCC(C(=O)c2ccc(C(C)(C)C)cc2)C1` (centres undefined), -3.3%. Then `O=C1Nc2ccccc2CNC12CCN(CC1CCCC1)CC2`, with -7.54%; and `Cc1sc2ccccc2c1S(=O)(=O)NCCNC(=O)C(C)C`, with -7.05%; and `Cc1cc(NC(=O)C(C)N2CCN(c3nccs3)CC2)on1` (centres undefined), with -3.21%. As for `COCCNC(=O)[C@H]1C[C@@](CC(C)C)(C(=O)O)N(C)[C@H]1c1cccnc1`, the cytotoxicity at 70.5 h was 1.74%. To `CC(C)(C)c1nnc(CN2CCCC2c2noc(C3CC3)n2)o1` (centres undefined) belongs -8.8%; to `Cc1cc(C(=O)N2C[C@@H](C(=O)O)[C@H](c3ccccc3C)C2)c(C)o1`, 13.2%.

In the case of `CCN(Cc1ccoc1)Cc1nc(COC)no1`, the cytotoxicity at 70.5 h is -7.42%. To `Fc1ccc2c(c1)nc1n2[C@@H](CNCc2nccs2)COC1` belongs -7.36%. Then `Cc1nc(CCNC(=O)C2CC(=O)N(C(C)C)C2)sc1C` (centres undefined), with -10.3%. To `CCOC1CCN(CCc2nc(-c3cccc(Cl)c3)no2)CC1` belongs 16.1%; to `CNC(=O)CC1CC2(CCN(c3ncccn3)CC2)c2ccccc21` (centres undefined), -6.77%; to `NCC1Cc2cccc(-c3ccc(O)c(F)c3)c2O1` (centres undefined), -13.6%.

For the molecule `CN(Cc1ccsc1)C(=O)c1ccc(S(=O)(=O)NC(C)(C)C)cc1`, the cytotoxicity at 70.5 h was -7.83%. Then `COc1ccc2c(c1)OCC(CNC1CCc3nc(C)nn3C1)=C2` (centres undefined), with -8.64%; and `CC1CN(C(=O)Nc2ccc(Cl)c(C(=O)NC3CC3)c2)CC(C)(C)O1` (centres undefined), with -7.92%; and `Cc1onc(N)c1S(=O)(=O)N1CCCCC1C` (centres undefined), with -2.67%. To `COc1ncccc1-c1ncccc1NC(=O)C(C)C` belongs -6.31%; to `NC(=O)N1CCCN(C2CCCCc3ccccc32)CC1` (centres undefined), -1.64%; to `CCOC(=O)c1cnn(-c2cc(Oc3ccccc3)ncn2)c1N`, 3.77%.

For `Cc1cc(F)cc(S(=O)(=O)Nc2ccn(CCCC#N)n2)c1`, the cytotoxicity at 70.5 h was -9.51%.

On to `Cn1cc(N2CC3(COCCN(Cc4ccccn4)C3)OCC2=O)cn1` (centres undefined), for which the cytotoxicity at 70.5 h is -11.1%. To `CC(=O)N1CC[C@H]2OCC[C@@H](C(=O)N3CCCCO3)[C@@H]2C1` belongs -20.9%; to `CCCOCCN1CCc2[nH]c(-c3ccc(OC)cc3)nc2C1`, -17%. Consider `CC(CN1CCOCC1)NCc1nncn1C1CCCCC1` (centres undefined), for which the cytotoxicity at 70.5 h is -3.01%.

As for `CN(C1CCN(c2ccccn2)CC1)S(=O)(=O)c1ccccc1F`, the cytotoxicity at 70.5 h was -3.26%. Then `O=C(Cc1csc(-c2ccccc2)n1)N[C@@H](C(=O)O)c1ccccc1`, with -9.17%.
